Reference: PubChem BioAssay (NCI)
“And” between values parts separate entries of the source, which are not always exact repeats. Identical values can stand only once.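 Test compounds were applied to cells in 96-well plates for 48 hours at 5 doses. Abbreviation: GI50, concentration required for 50% inhibition of growth. The concentration for full growth arrest is given as TGI.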

Legend:
Experiment in all cases: growth of human tumour cells (NCI), 48 h
[1] = system: MDA-MB-231 breast
[2] = system: CAKI-1 renal
[3] = system: SF-539 CNS
[4] = system: UACC-62 melanoma
[5] = system: IGROV1 ovarian
[6] = system: OVCAR-5 ovarian
[7] = system: NCI-H23 lung
[8] = system: KM12 colon
[9] = system: DU-145 prostate
[10] = system: SK-MEL-5 melanoma
[11] = system: NCI-H460 lung
[12] = system: CCRF-CEM leukemia

Row | Structure (SMILES) | TGI [1] | TGI [2] | TGI [3] [µM] | TGI [4] | TGI [5] | TGI [6] | TGI [7] | TGI [8] | TGI [9] | TGI [10] | TGI [11] | TGI [12] | GI50 [1] | GI50 [8]
1 | Cc1ccc(O)c(C(c2cccc(C(c3cc(C)ccc3O)c3cc(C)ccc3O)c2)c2cc(C)ccc2O)c1 | 2.83 µM | 3.04 µM | 3.35 | 3.51 µM | 3.02 µM | 3.15 µM | 3.18 µM | 3.23 µM | 2.84 µM | 3.93 µM | – | – | – | –
2 | CC1=C(C#N)C(=C(C#N)C#N)OC1(C)Cc1ccccc1 (stereo unspecified) | > 100 µM | 50.9 µM | > 100 | 50.4 µM | > 100 µM | > 100 µM | > 100 µM | > 100 µM | > 100 µM | > 100 µM | – | – | – | –
3 | CC(=O)OC[C@H]1CN(OC(C)=O)C[C@@H](n2cc(C)c(=O)[nH]c2=O)O1 | > 100 µM | > 100 µM | > 100 | > 100 µM | > 100 µM | > 100 µM | – | > 100 µM | > 100 µM | > 100 µM | > 100 µM | – | – | –
4 | Cc1ccc([N+](=O)[O-])cc1S(=O)(=O)Nc1ccc(C2=NN(S(=O)(=O)c3cc([N+](=O)[O-])ccc3C)C(c3ccccc3)C2)cc1 (stereo unspecified) | 90.9 µM | > 100 µM | – | 44.7 µM | > 100 µM | > 100 µM | 60.5 µM | > 100 µM | > 100 µM | > 100 µM | 55.5 µM | > 100 µM | – | –
5 | COc1ccc(CNc2cnc3cc(N)ccc3n2)cc1 | – | – | > 100 | > 100 µM | > 100 µM | > 100 µM | > 100 µM | > 100 µM | – | > 100 µM | > 100 µM | > 100 µM | – | –
6 | CN1C(=O)C2(C)SC1(c1ccccc1)C1C(=O)N(c3ccccc3)C(=O)C12 (stereo unspecified) | > 100 µM | > 100 µM | > 100 | > 100 µM | > 100 µM | > 100 µM | > 100 µM | > 100 µM | > 100 µM | > 100 µM | – | – | – | –
7 | COc1cc(/C=C2\C(=O)N(C(=O)Cc3ccccc3)N=C2C)cc(OC)c1OC | – | > 100 µM | > 100 | – | – | > 100 µM | > 100 µM | > 100 µM | – | > 100 µM | > 100 µM | > 100 µM | – | –
8 | CC(C)(O)C(O)COc1c2c(cc3oc(=O)ccc13)OCO2 (stereo unspecified) | – | > 100 µM | > 100 | > 100 µM | > 100 µM | > 100 µM | > 100 µM | > 100 µM | – | > 100 µM | > 100 µM | > 100 µM | – | –
9 | Cc1c(C)c2ccc(OCC(O)COC(C)C)c(C)c2oc1=O (stereo unspecified) | – | > 100 µM | – | > 100 µM | > 100 µM | > 100 µM | > 100 µM | > 100 µM | > 100 µM | 30.2 µM | 34.6 µM | 62.4 µM | – | –
10 | FC1(F)[Se]C2C3CCC(C3)C2C1(F)F (stereo unspecified) | > 100 µM | > 100 µM | > 100 | > 100 µM | > 100 µM | > 100 µM | – | > 100 µM | > 100 µM | > 100 µM | > 100 µM | – | – | –
11 | N#CC12C(=O)NC(=O)C1(C#N)C1C=CC2CC1 (stereo unspecified) | – | > 100 µM | > 100 | > 100 µM | – | > 100 µM | > 100 µM | > 100 µM | > 100 µM | > 100 µM | – | > 100 µM | – | –
12 | C[C@H](C1CC(C)(O)C(C)(O)C(O)O1)[C@H]1CC[C@H]2[C@@H]3[C@@H]4O[C@@H]4[C@@]4(O)CC=CC(=O)[C@]4(C)[C@H]3CC[C@]12C (stereo partly specified) | > 50 µM | > 50 µM | – | > 50 µM | > 50 µM | > 50 µM | > 50 µM | > 50 µM | > 50 µM | > 50 µM | > 50 µM | > 50 µM | – | –
13 | CC1OC(OC2C(OC(=O)[C@]34CCC(C)(C)C[C@H]3C3=CC[C@@H]5[C@@]6(C)CC[C@H](OC7OC(C(=O)O)C(O)C(O)C7O)C(C)(C)[C@@H]6CC[C@@]5(C)[C@]3(C)C[C@H]4O)OCC(O)C2O)C(O)C(O)C1OC1OCC(O)C(O)C1O (stereo partly specified) | 22.3 µM and 8.24 µM | 25.6 µM and 21.6 µM | – | 32.7 µM and 30.1 µM | 31.5 µM and 27.8 µM | 28.5 µM and 23 µM | 18.2 µM and 20.7 µM | 22.3 µM and 14.2 µM | 28.9 µM and 27.4 µM | 30.5 µM and 34.7 µM | 48.3 µM and 33.7 µM | 36.1 µM and 61.2 µM | 9.19 µM and 3.49 µM | 9.85 µM and 3.45 µM
14 | COc1cc(C2C(Cl)C(=O)N2NC(=O)Cc2ccccc2)cc(Br)c1O (stereo unspecified) | – | > 100 µM | – | > 100 µM | > 100 µM | > 100 µM | > 100 µM | > 100 µM | – | > 100 µM | > 100 µM | > 100 µM | – | –
15 | OC1(C(Sc2cc(C(F)(F)F)cc(C(F)(F)F)c2)Sc2cc(C(F)(F)F)cc(C(F)(F)F)c2)C=CCCC1 (stereo unspecified) | – | 6.33 µM | – | 7.79 µM | 8.56 µM | 6.6 µM | 8.66 µM | 5.83 µM | 8.99 µM | 16.6 µM | 3.55 µM | 6.39 µM | – | –
16 | COC(=O)[C@]12CC3C=CC1N(C3)C(CBr)c1c2n(S(=O)(=O)c2ccccc2)c2ccccc12 (stereo partly specified) | > 100 µM | > 100 µM | – | > 100 µM | > 100 µM | > 100 µM | > 100 µM | > 100 µM | > 100 µM | > 100 µM | > 100 µM | > 100 µM | – | –
17 | C=C(C)C12CC3CC(/C(=N/O)C(C1)/C3=N\O)[C@@]2(C)O (stereo partly specified) | – | > 100 µM | > 100 | > 100 µM | > 100 µM | > 100 µM | > 100 µM | – | – | > 100 µM | > 100 µM | > 100 µM | – | –
18 | CC(=O)c1nc2ccccc2n1C(C)C(=O)c1ccccc1 (stereo unspecified) | > 100 µM | > 100 µM | > 100 | > 100 µM | > 100 µM | – | > 100 µM | > 100 µM | > 100 µM | – | > 100 µM | > 100 µM | – | –
19 | CC1=C(C(=O)OC2CC3CCC2(C)C3(C)C)C2Nc3ccccc3N(C)C2O1 (stereo unspecified) | 16.9 µM | 10.5 µM | – | 4.29 µM | 6.97 µM | 25.9 µM | 6.59 µM | 8.67 µM | 2.79 µM | 3.53 µM | 3.7 µM | 7.07 µM | – | –
20 | COc1cccc2c1c1ccc3c(c1n2C)C(=O)C=CC3=O | – | 11.6 µM | 30.9 | 31.2 µM | > 100 µM | > 100 µM | 32.2 µM | > 100 µM | – | > 100 µM | > 100 µM | > 100 µM | – | –
